Assay results reported in PMC12973313 (Chemical Science, 2026).
Values after ≈ are worked out from the molar mass of the structure shown. Values joined by “and” are separate entries in the source; they are usually repeats but may differ in a detail not shown here. Equal entries are not always repeated. Where two headings read alike, the source gives them in different places.

How the values were obtained:
[1] = design: method as in PMID 29633393; settings: D2O 5% EtOH, 5.56 mM, 298 K; cited from earlier work
[2] = design: method as in PMID 29633393; settings: DMSO-d6 1% DCM, 112 mM, 298 K; proportion NMR silent; cited from earlier work
[3] = design: method as in PMID 29633393; settings: H2O 5% EtOH, cited from earlier work
[4] = H2O 5% EtOH, 5.56 mM; cited from earlier work
[5] = 1H NMR DOSY, DMSO-d6 0.5% H2O, 112 mM, 298 K; cited from earlier work
[6] = Metabolic stability in liver microsomes; assay type: in vitro ADME, mouse
Method: Following this, the metabolic stability of 9 was determined against mouse, rat, and human liver microsomes. […] Within this assay the stability of the intact parent compound is monitored with respect to time, during incubation at 37 °C in the presence and absence of the co-factor NADPH – required for cytochrome p450 activity.
Metabolic Stability in Rat, Mouse and Human Liver Microsomes:
The metabolic stability of compounds at a concentration of 1 µM, in rat, mouse and human liver microsomes (BD Gentest, Franklin Lakes NJ) was measured following incubation with […]
(NADPH) at 37 °C. Aliquots of each incubation were removed at 0.5, 5, 15, 30 and 60 minutes. The reaction was stopped by the addition of cold acetonitrile containing analytical […]
Samples were then centrifuged at 3,220 g for 40 minutes. The supernatant was aliquoted and added to ultra-pure H2O in a 1:1 ratio in preparation for LC-MS/MS analysis.
Incubations were conducted in duplicate; control incubations (substituting PBS for NADPH) were conducted simultaneously.
Samples were analysed using a Shimadzu Shimadzu Nexera LC Binary Gradient LC-30AD (Shimadzu Inc, Kyoto), coupled to a Sciex 5500 mass spectrometer (AB Inc., Illinois) for rat and mouse microsomes and a Sciex 6500+ for human microsomes. Separation achieved using an XSelect HSS T3 column (2.5µm, 50 x 2.1 mm) (Waters Ltd., Wilmslow) at a temperature of 40°C and a binary mobile phase gradient at a flow rate of 0.7 mL/min. Initial […]
(0.1% formic acid in acetonitrile).
0.5 minutes and then immediately returned to initial conditions. Sample analysis was by electrospray ionisation combined with multiple reaction monitoring in positive ion mode.
The ionspray voltage was 5500V.
Bi-directional Permeability in Caco-2 Cell Line: […]

[7] = Kinetic solubility in PBS pH 7.4; assay type: physicochemical; settings: upper limit 300 µM
[8] = Plasma protein binding, equilibrium dialysis; assay type: in vitro ADME, human
Method: This allows an assessment of the free drug concentration available to distribute into the tissues and interact with the target. The extent to which a compound binds to the constituents of blood plasma can influence drug distribution. […] page 10: In vitro Absorption, Distribution and Metabolism studies General note: These studies were performed by Contract Research Organisation (CRO) Pharmaron. The methodology provided within the ESI is published within the express permission of this organisation. The percentage of a compound recovered during the […] limitations such as unintended potential non-specific binding events to experimental equipment, solubility issues, etc. Protein Binding measurements in human plasma by using equilibrium dialysis: The fraction unbound in human plasma (P-KB, Ltd People's hospital of Shandong) was measured using 96-well Equilibrium Dialysis Plate (HTDialysis LLC, Gales Ferry, CT). Human plasma containing 5 μM test compound was dialysed against dialysis buffer (PBS, pH 7.4) with initial samples taken to allow for assessment of plasma stability and recovery before the plate was incubated for 6 hours at 37°C at 5% CO2. Samples were removed at 6 hours, and all samples were matrix matched and quenched with acetonitrile containing internal standard. Samples were centrifuged at 3,220g for 30 minutes to precipitate protein and enable sampling of supernatant prior to appropriate dilution for liquid chromatography mass-spectrometry (LC-MS/MS) analysis. Samples were analysed using a Shimadzu Nexera LC Binary Gradient LC-30AD (Shimadzu Inc, Kyoto), coupled to a Sciex 6500+ (AB Inc., Illinois). Separation was achieved using a XSelect HSS T3 (2.5μm, 2.1 x 50 mm) (Waters Ltd., Wilmslow) column at a temperature of 40°C and a binary mobile phase gradient at a flow rate of 0.8 mL/min. Initial LC conditions comprised of […] was ramped to 98% B at 0.5 min, held for 0.4 min and then immediately returned to initial conditions. Sample analysis was by electrospray ionisation in combined with multiple reaction monitoring in positive ionisation mode. The ionisation voltage was +5500 V. Kinetic Solubility Determination in PBS pH 7.4: The stock solutions of test and control compounds were prepared in DMSO at 10 mM. From […] These solutions were then shaken at 1100 rpm for 2 hours at 25°C. Following incubation, the samples were filtered using a vacuum manifold. The filtrate was analysed and quantified against a standard of known concentration using liquid chromatography mass- spectrometry (LC-MS/MS). Samples were analysed using a Shimadzu Nexera LC Binary Gradient LC-30AD (Shimadzu Inc, Kyoto), coupled to a Sciex 4500 mass spectrometer (AB Inc., Illinois). Separation of […] Wilmslow) at a temperature of 40°C and a binary mobile phase gradient at a flow rate of 0.8 mL/min. […] This was ramped to 98% solvent B at 0.5 minutes, held for 0.4 minutes and then immediately returned to initial conditions. Sample analysis was by electrospray ionisation combined with multiple reaction monitoring in positive ion mode. The ionspray voltage was […]. 10

O=C(O)CNC(=O)Nc1ccc(C(F)(F)F)cc1 [SSA 1]
Q NMR (%) SSA anion [1]: 68 (ref. [30]) % | Q NMR (%) SSA anion [2]: 0 (ref. [30]) % | Q NMR (%) SSA cation [2]: 0 (ref. [30]) % | CAC (mM) ([3]; approx. 291 K): 11.2 (ref. [30]) mM | Surface tension (mN m^-1) [3]: 39.33 (ref. [30]) mN m^−1 | dH (nm), DLS peak maxima [4]: 220 nm and 220 (ref. [30]) nm | dH (nm) [5]: 1.3 (ref. [30]) nm

O=C(Nc1ccc(C(F)(F)F)cc1)N[C@H](Cc1ccccc1)C(=O)O [SSA 9]
microsomal CLint at 1 µM ([6]; liver microsomes, mouse microsomes): < 7.5 µL/min/mg | Hepatic Extraction Ratio (ER) ([6]; mouse): < 0.26 | Predicted Hepatic CLH ([6]; mouse): < 23.07 mL/min/kg | In vitro t1/2 ([6]; mouse, 1 µM, 0.5 mg protein/mL): > 3.0797 h | Remaining percentage (%) 0.5 min ([6]; mouse, +Cofactors): 100.00% | Remaining percentage (%) 5 min ([6]; mouse, +Cofactors): 101.43% | Remaining percentage (%) 15 min ([6]; mouse, +Cofactors): 97.80% | Remaining percentage (%) 30 min ([6]; mouse, +Cofactors): 99.51% | Remaining percentage (%) 60 min ([6]; mouse, +Cofactors): 99.55% | Remaining percentage (%) 0.5 min ([6]; mouse, -Cofactors): 100.00% | Remaining percentage (%) 60 min ([6]; mouse, -Cofactors): 101.52% | half-life at 1 µM ([6]; mouse, liver microsomes, mouse, 1 µM, 0.5 mg protein/mL, read-out: In vitro t1/2): > 3.08 h | CLint scaled at 1 µM ([6]; mouse, liver microsomes, read-out: Scale-up CLint): < 31 mL/min/kg | solubility at 2 h ([7]; phosphate buffered saline, 25 °C, pH 7.4, aqueous buffer, kinetic from dmso stock): 271 µM (≈ 95.5 µg/mL) | Solubility in PBS pH 7.4 (μM) ([7]; 25°C, 2 hours): 271 μM | % Bound ([8]; human plasma, 5 µM, 6 hours, 37 °C): 99.73% | % Unbound ([8]; human plasma, 6 hours): 0.3% | % Stability / % Remaining at 6 hr ([8]; human plasma, 6 hr): 98.85% | % Recovery ([8]; human plasma, after 6 hours): 98.3% | recovery at 6 h, 5 µM ([8]; human, human plasma, pH 7.4, human plasma, after 6 hours): 98.3% | remaining at 6 h, 5 µM ([8]; human, plasma, human plasma, 6 hr, read-out: % Stability / % Remaining at 6 hr): 98.9% | fraction unbound at 6 h, 5 µM ([8]; human, plasma, pH 7.4, human plasma, 5 µM, 6 hours, 37 °C, read-out: % Bound (converted)): 0.003 | fraction unbound at 6 h, 5 µM ([8]; human, plasma, pH 7.4, human plasma, 6 hours, read-out: % Unbound): 0.0027
